± gives the expanded uncertainty stated by the source.
What was measured:
[1] = wn = mass fraction of the nth substance listed; conditions: 101 kPa, Liquid, w2 = 0
[2] = refractive index (Na D-line) (dimensionless); wn = mass fraction of the nth substance listed; conditions: 101 kPa, Liquid, w2 = 0

SMILES: O [water] + O=C([O-])[C@H](O)[C@@H](O)C(=O)[O-].[Na+].[Na+]
- viscosity ([1]; 298.15 K): 0.89 ± 0.023 mPa·s
- viscosity ([1]; 308.15 K): 0.729 ± 0.019 mPa·s
- viscosity ([1]; 318.15 K): 0.6 ± 0.017 mPa·s
- refractive index ([2]; 298.15 K): 1.3325 ± 0.0007
- refractive index ([2]; 308.15 K): 1.3313 ± 0.0007
- refractive index ([2]; 318.15 K): 1.33 ± 0.0007
